The values that follow are results of earlier work, collected in patent US20120219597A1, “PHARMACEUTICAL FORMULATIONS FOR INDIBULIN” (ZIOPHARM Oncology, Inc., priority 2009, published 2012).

The conditions of series [1]: pure indibulin.
The conditions of series [2]: in water, methanol, ethanol or 2-propanol.

Turning to `O=C(Nc1ccncc1)C(=O)c1cn(Cc2ccc(Cl)cc2)c2ccccc12` [indibulin], the bioavailability result in series [1] is on record as “low”. Further, the solubility result in series [2] was “practically insoluble”.
